Consider 2 molecules from patent US20160136130A1, “Oral Ultraviolet Resistance Enhancer” (KAO CORPORATION, priority 2013, published 2016).

One experiment deals with HR-1 hairless mice. Description: Ultraviolet-induced erythema (a* value) and epidermal thickness after oral GDL mixed feed. The following applies: UVB 40 mJ/cm^2. It counts as in vivo, mouse. As for the experimental part:
HR-1 hairless mice (female, 8 weeks of age) (Japan SLC, Inc.) were bred in conditions of a temperature of 23±1° C., a humidity of 50±1%, and a lighting time of 7:00 to 19:00, and the mice freely ingested feed and water during the test period. […] After the two-week ingestion term, two sites (an irradiation site and a non-irradiation site) of 1.5 cm×1.0 cm were set in contiguity with each other on the back of the mouse under pentobarbital anesthesia, and irradiation was applied to the irradiation site in a UVB exposure dose of 1 mW/cm^2 for 40 seconds (40 mJ/cm^2). A degree of erythema was evaluated after 2 days from the irradiation by a skin color (a*value) measurement using a spectrophotometer SE-6000 (Nippon Denshoku Industries Co., Ltd.). The a*value is an index showing redness of the skin color, and it can be said that the skin turns more red, namely, the more erythema are generated, as the a* value is increased.
After the measurement, blood was drawn from a heart under deep anesthesia, and the skin was taken from the UVB non-irradiation site and the irradiation site. […] As for an epidermal thickness, an average value of epidermal thicknesses at 15 arbitrary points per tissue was defined as the epidermal thickness of the tissue.

Experiment [1] relates to IL-1β, IL-6, GM-CSF, TNFα, COX-2, TLR3, SOCS3. Briefly: qRT-PCR of UVB-induced inflammation-related gene expression in skin. It counts as in vivo, mouse. As to conditions: 1.0% GDL feed 2 weeks; UVB 40 mJ/cm^2; 24 hours after irradiation; corrected by Rplp0. How it is done:
(§1) HR-1 hairless mice (female, 8 weeks of age) (Japan SLC, Inc.) were bred in conditions of a temperature of 23±1° C., a humidity of 50±1%, and a lighting time of 7:00 to 19:00, and the mice freely ingested feed and water during the test period. […] After the two-week ingestion term, two sites (an irradiation site and a non-irradiation site) of 1.5 cm×1.0 cm were set in contiguity with each other on the back of the mouse under pentobarbital anesthesia, and irradiation was applied to the irradiation site in a UVB exposure dose of 1 mW/cm^2 for 40 seconds (40 mJ/cm^2). After 24 hours from the irradiation, blood was drawn from a heart, and the skin was taken from the UVB non-irradiation site and the irradiation site, from which RNA was extracted. A gene expression level of the molecule, shown below, was quantified from the extracted RNA according to qRT-PCR. As a TaqMan Gene Expression Assay (Applied Biosystems) probe, which specifically detects a target gene, were used Il-1b (Mm01336189_m1; IL-1b, Il-6 (Mm00446190_m1; IL-6), Gm-csf (Mm01290062_m1; GM-CSF), Tnf (Mm00443258_m1; TNFa), Ptgs2 (Mm01307329_m1; COX-2), Tlr3 (Mm01207404_m1; TLR3), Socs3 (Mm00545913_s1; SOCS3), Vcam1 (Mm01320970_m1; VCAM-1), Icam1 (Mm00516023_m1; ICAM-1), Sele (Mm00441278_m1; E-selectin), Edn1 (Mm00438656_m1; EDN1), Kit1 (Mm00442972_m1; SCF), C-kit (Mm00445212_m1; c-Kit), Lif (Mm00434761_m1; LIF), Fgf2 (Mm00433287_m1; FGF2), Hgf (Mm01135185_m1; HGF), Pcna (Mm00448100_g1; PCNA), Ccnd1 (Mm00432359_m1; CyclinD1), Mmp13 (Mm00439491_m1; MMP13), Mmp2 (Mm00439506_m1; MMP2), Mmp9 (Mm00442991_m1; MMP9), and Mmp14(Mm00485054_m1; MMP14). A target gene expression level was corrected by an expression level of an internal standard gene Rplp0 (Mm01974474_gH; RPLP0). An analysis was performed using 7500 Fast Real-Time PCR System (Applied Biosystems). The obtained values are expressed as Ave.±S.D., n=10, and as for a statistical significance test between many groups, a multiple comparison test according to Dunnett was performed (*p<0.05, **p<0.01 (vs Cont UVB+). • IL-1β: Interleukin-1β • IL-6: Interleukin-6 • GM-CSF: Granulocyte macrophage colony-stimulating factor • TNFα: Tumor necrosis factor α • COX-2: Cyclooxygenase-2 • TLR3: Toll-like receptor 3 • SOCS3: Suppressor of cytokine signaling 3 • VCAM-1: Vascular cell adhesion molecule-1 • ICAM-1: Intercellular adhesion molecule-1 • E-selectin • EDN1: Endothelin 1 • SCF: Stem cell factor (kit-ligand) • c-Kit • LIF: Leukemia inhibitory factor • FGF2: Fibroblast growth factor 2 (basic) • HGF: Hepatocyte growth factor • PCNA: Proliferating cell nuclear antigen • CyclinD1 • MMP13: Matrix metallopeptidase 13 (Collagenase 3) • MMP2: Matrix metallopeptidase 2 (Gelatinase A) • MMP9: Matrix metallopeptidase 9 (Gelatinase B) • MMP14: Matrix metallopeptidase 14 (membrane-inserted)
A general note: In qPCR the cycle at which signal appears reflects the starting amount.

Experiment [2] deals with VCAM-1, ICAM-1, E-selectin. Briefly: qRT-PCR of UVB-induced adhesion molecule expression in skin. The format is in vivo, mouse. The following applies: 1.0% GDL feed 2 weeks; UVB 40 mJ/cm^2; 24 hours after irradiation. How it is done: (§2) HR-1 hairless mice (female, 8 weeks of age) (Japan SLC, Inc.) were bred in conditions of a temperature of 23±1° C., a humidity of 50±1%, and a lighting time of 7:00 to 19:00, and the mice freely ingested feed and water during the test period. […] After the two-week ingestion term, two sites (an irradiation site and a non-irradiation site) of 1.5 cm×1.0 cm were set in contiguity with each other on the back of the mouse under pentobarbital anesthesia, and irradiation was applied to the irradiation site in a UVB exposure dose of 1 mW/cm^2 for 40 seconds (40 mJ/cm^2). After 24 hours from the irradiation, blood was drawn from a heart, and the skin was taken from the UVB non-irradiation site and the irradiation site, from which RNA was extracted. A gene expression level of the molecule, shown below, was quantified from the extracted RNA according to qRT-PCR. […]

For experiment [3], the system named is EDN1, c-Kit, LIF, FGF2, HGF. Briefly: qRT-PCR of UVB-induced melanin synthesis-related molecule expression in skin. The format is in vivo, mouse. As to conditions: 1.0% GDL feed 2 weeks; UVB 40 mJ/cm^2; 24 hours after irradiation. As for the experimental part:
as §1

Another experiment deals with PCNA, CyclinD1. Briefly: qRT-PCR of UVB-induced proliferation-related molecule expression in skin. It counts as in vivo, mouse. As to conditions: 1.0% GDL feed 2 weeks; UVB 40 mJ/cm^2; 24 hours after irradiation. How it is done: as §2
A further experiment deals with MMP13, MMP2, MMP9, MMP14. Description: qRT-PCR of UVB-induced dermal denaturation-related molecule expression in skin. The format is in vivo, mouse. As to conditions: 1.0% GDL feed 2 weeks; UVB 40 mJ/cm^2; 24 hours after irradiation. How it is done:
as §1, with “An analysis was performed using 7500 Fast Real-Time PCR System (Applied Biosystems).” left out

The test system of the next experiment is HRM-2 hairless mice. Description: Long-term repeated UVB irradiation (20 weeks): pigmentation, stratum corneum function, skin elasticity. It counts as in vivo, mouse. As to conditions: 2.0% GDL feed.
In another experiment the test system is healthy males. Description: Human crossover test, capsule including glucono-δ-lactone: MED, erythema, pigmentation after UVB. It counts as in vivo. The following applies: 2000 mg glucono-δ-lactone per day orally. How it is done: A 4-week ingestion interval was provided between the first half and the last half of the crossover test. Glucono-δ-lactone, which is a test product, is a food additive (Fuso Chemical Co., Ltd.), and the intake was divided into twice a day for ingestion. After a 3-week ingestion term, irradiation was applied to an upper arm inside part with a UVB intensity of 1 mW/cm^2 for 7 different time periods, each at different sites (an irradiation area of 0.6 cm×1.0 cm per site). After 24 hours from the UVB irradiation, an MED value (the minimum erythema dose) was visually evaluated.
After the 3-week ingestion term, irradiationwith a radiation dose corresponding to 2 MED was applied to an area of 1.5 cm×1.5 cm on the upper arm inside part with a UVB intensity of 1 mW/cm^2. After 24 hours from the UVB irradiation, a ΔAa*value (erythema intensity: a difference from that in the non-irradiation site) was measured using a spectrophotometer. Further, after one week from the UVB irradiation, a ΔL*value (degree of pigmentation: a difference from that in the non-irradiation site) in each irradiation site wasmeasuredusing the spectrophotometer. The obtained values are expressed as Ave.±S.D., n=10, and as for a statistical significance test between the two groups, a paired t-test was performed (*p<0.05, **p<0.01).

The subject of a further experiment is IGF-1. As to conditions: applied to the skin; cited from earlier work.
Setting [4] is: UVB once per day, 40 to 130 mJ/cm^2, after the UV irradiation 8th week or 12th week.

From the text for HRM-2 hairless mice: After a test feed was previously ingested for 3 weeks, UVB irradiation was applied to the UVB irradiation groups once per day over 20 weeks. As an ultraviolet resistance was obtained by continuous irradiation, a UVB irradiation intensity was increased from 40 mJ/cm^2 to 130 mJ/cm^2 in stages (irradiation in 0 to the first week: 40 mJ/cm^2, irradiation in the second to the forth weeks: 54 mJ/cm^2, irradiation in the fifth to the seventh weeks: 72 mJ/cm^2, irradiation in the eighth to the twelfth weeks: 108 mJ/cm^2, irradiation in the thirteenth to the fourteenth weeks: 120 mJ/cm^2, irradiation in the fifteenth to twentieth weeks: 130 mJ/cm^2). During the UVB irradiation term, the test feed was ingested. At the time of the grouping, and the irradiation 0th, 4th, 8th, 12th, 16th, and 20th weeks, the measurements of L*values using a spectrophotometer, TEWL values using a Tewameter, and stratum corneum moisture contents (the Capacitance value) using a Corneometer were performed. At the irradiation 20th week, skin physical parameters were measured using a Cutometer. The obtained values are expressed as Ave.±S.D., n=10-11, and the multiple comparison test was performed according to Tukey-Kramer.

In the case of `O=C1O[C@H](CO)[C@@H](O)[C@H](O)[C@H]1O` [GDL, Glucono-δ-lactone], the “increase of a*values due to the UVB irradiation (erythema)” value in the experiment with HR-1 hairless mice (0.5% and 1% GDL mixed feed for 2 weeks, 2 days after irradiation) was “concentration-dependently suppressed”. Also, the “a* value in the irradiation sites compared to the irradiation sites in the control group” value in the experiment with HR-1 hairless mice (1% GDL group, feed for 2 weeks, 2 days after irradiation) was “significant suppression”. Moreover, the “increase of epidermal thickness in the irradiation sites compared to control group” value in the experiment on HR-1 hairless mice (GDL groups (0.5%, 1%), feed for 2 weeks, HE stain) is “significantly suppressed”. Moreover, in experiment [1], the “COX-2 gene expression in irradiation sites vs control” value was “significantly suppressed”, the “GM-CSF gene expression in irradiation sites vs control” value was “significantly suppressed”, the “IL-1β gene expression in irradiation sites vs control” value was “significantly suppressed” and the “IL-6 gene expression in irradiation sites vs control” value is recorded as “significantly suppressed”. Further, in [1], the “SOCS3 gene expression in irradiation sites vs control” value is “significantly suppressed”, the “TLR3 gene expression in irradiation sites vs control” value is listed as “significantly suppressed” and the “TNFα gene expression in irradiation sites vs control” value was “significantly suppressed”. In [2], the ICAM-1 expression result is “suppressed” and the VCAM-1 expression result is on record as “suppressed”. Also, in [3], the EDN1 expression result is on record as “significantly reduced”, the FGF2 expression result is given as “significantly reduced”, the HGF expression result was “significantly reduced” and the LIF expression result was “significantly reduced”. Moreover, the c-Kit expression result in [3] is listed as “significantly reduced”. For the same molecule, in the experiment on PCNA, CyclinD1, the CyclinD1 expression entry was “suppressed” and the PCNA expression entry is on record as “suppressed”. In the experiment with MMP13, MMP2, MMP9, MMP14, the “collagenase (MMP13) expression” value is recorded as “suppressed”, the “gelatinase MMP2 expression” value was “suppressed”, the “gelatinase MMP9 expression” value is on record as “suppressed” and the “membrane-associated MMP (MMP14) expression” value is listed as “suppressed”. For the same molecule, the “reduction of the skin viscoelasticity (Uv/Ue)” value in the experiment on HRM-2 hairless mice (UVB once per day over 20 weeks, Cutometer at irradiation 20th week) is on record as “suppressed”. In addition, in the experiment on HRM-2 hairless mice (setting [4]), the “decrease of L*value caused by the UVB irradiation (pigmentation)” value is “suppressed” and the “decrease of stratum corneum moisture content (the Capacitance value) caused by the UVB irradiation” value is “suppressed”. Besides, in the experiment on healthy males (2 MED UVB, after 24 hours from the UVB irradiation), the “Δa*values (erythema intensity) compared to the placebo group” value is “significantly decreased”. Besides, the “AL* values (degree of pigmentation) compared to the placebo group” value with healthy males (2 MED UVB, after one week from the UVB irradiation) is listed as “significantly decreased”. In the experiment on healthy males (after 3-week ingestion, 24 hours after UVB, upper arm inside), the “MED values (minimum erythema dose) compared to the placebo group” value was “significantly high”.
Take `O=C(O)[C@H](O)[C@@H](O)[C@H](O)[C@H](O)CO` [gluconic acid]: the IGF-1 secretion entry in the experiment with IGF-1 is reported as “promoted”.
